Laboratory results as given in patent US12428395B2, “Heterocyclic compounds as kinase inhibitor and uses thereof” (SPEROGENIX THERAPEUTICS LIMITED, priority 2019, dated 2025).

Experiments:
MDA_MB-231 = experiment: Cell viability assay (resazurin), MDA_MB-231; format: cell-based; conditions: Homo sapiens, MDA-MB-231; MDA_MB-231 TNBC cells
Method: (§1) Protocol for Cell Viability Assay in Different Cell Lines for CHK-1 Inhibitors:
(§2) Cells were allowed to grow at 37° C. for 24 hr (adherent cells) in 5% CO2 (culture conditions) in a Nuaire incubator (humidified). Following 24 hr (adherent cells), serially diluted compounds (100 μl) were added to the culture plate (immediately after plating in case of suspension cells) and the cultures were further incubated in culture conditions for 72-144 hr depending on the cell type. Experiment was terminated at the completion of respective incubation with drug by replacing the medium with 100 μl of 1 mM of resazurin (R7017; Sigma) prepared in culture medium and the plates were further incubated in culture conditions for 4 hr. In case of 144 hr incubation with the drug, the drug was replenished once with fresh medium after 72 hr. Fluorescence was then measured using a multimodal plate reader (Biotek Synergy Neo) at an excitation wavelength of 535 nm and emission wavelength of 590 nm to obtain relative fluorescence units. Data analysis was done by subtracting the background fluorescence (only medium blank) value from each reading and then normalizing with the vehicle control (DMSO treated cells) to obtain percent survival/proliferation. Percent survival at different doses was used to calculate IC50 by fitting the curve to the “four-parameter variable slope logistic model” using Prism Graph Pad.

MV-4-11 = experiment: Cell viability assay (resazurin), MV-4-11; format: cell-based; conditions: Homo sapiens, MV4-11; MV-4-11 peripheral blood cells
Method: as §1, §2

A549 = experiment: Cell viability assay (resazurin), A549; format: cell-based; conditions: Homo sapiens; A549 lung epithelial carcinoma cells
Method: as §1, §2

MiaPaCa-2 = experiment: Cell viability assay (resazurin), MiaPaCa-2; format: cell-based; conditions: Homo sapiens, MIA PaCa-2; MiaPaCa-2 pancreatic cancer cells
Method: as §1, §2

CHK-1 kinase = CHK-1 kinase (Homo sapiens (Human), UniProt O14757); experiment: CHK-1 Kinase Assay (Z-LYTE based TR-FRET); format: biochemical; conditions: for inhibition at 0.1 µM: 0.1 μM compound, read-out: % Inhibition of CHK-1 enzyme activity @ 0.1 μM; for inhibition at 1 µM: 1 μM compound, read-out: % Inhibition of CHK-1 enzyme activity @ 1 μM; for inhibition at 5 µM: 5 μM compound, read-out: % Inhibition of CHK-1 enzyme activity @ 5 μM
CHK-1 kinase, sequence (O14757 whole entry): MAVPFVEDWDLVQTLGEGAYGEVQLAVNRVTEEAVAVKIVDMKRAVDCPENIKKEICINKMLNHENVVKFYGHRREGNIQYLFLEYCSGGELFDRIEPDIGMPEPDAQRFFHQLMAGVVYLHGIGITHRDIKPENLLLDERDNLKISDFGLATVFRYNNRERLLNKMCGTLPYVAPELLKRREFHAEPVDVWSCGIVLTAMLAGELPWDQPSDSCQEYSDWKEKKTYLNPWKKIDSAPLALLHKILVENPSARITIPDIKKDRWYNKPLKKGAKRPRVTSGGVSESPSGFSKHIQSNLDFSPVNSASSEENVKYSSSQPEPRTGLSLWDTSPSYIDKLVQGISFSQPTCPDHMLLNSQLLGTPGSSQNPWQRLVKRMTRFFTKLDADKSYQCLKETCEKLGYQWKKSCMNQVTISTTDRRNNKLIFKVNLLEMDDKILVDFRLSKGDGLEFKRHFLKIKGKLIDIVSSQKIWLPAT
Method: IC50 values of compounds for inhibition of CHK-1 kinase or percent inhibition at defined concentrations were determined by Z-LYTE™ based TR-FRET assay. Kinase reactions were performed in a 10 μL volume in low-volume 384-well plates. The concentration of substrate (Ser Thr 19) was maintained at 2 μM in the assay, and the kinase reaction buffer consisted of 50 mM HEPES pH 7.5, 0.01% BRIJ-35, 10 mM MgCl2, 1 mM EGTA, 2 mM DTT. Serially diluted compounds (3-fold) in DMSO (0.5% in final reaction) were incubated with cocktail of CHK-1 kinase (5 ng/ml; Cat #P3040, ThermoFisher), substrate Ser Thr 19, (2 μM; Cat #PV4529, ThermoFisher), ATP (53 μM; Cat #PV3227, ThermoFisher) and buffer. Kinase reactions were allowed to proceed for 1 hour at room temperature after which 5 μL of a 1:256 dilution of Development Reagent A was added. The plate was allowed to incubate at room temperature for 60 minutes before being read on a BMG Pherastar plate reader using the Z-LYTE™ filter block for Z-LYTE™ TR-FRET. The resulting TR-FRET emission ratio was used to calculate percent inhibition by normalizing with the control using the following formula: — [% Inhibition=1−{(% Phosphorylationsample/% Phosphorylationcontrol (0% Inhibition)}·100] For calculation of IC50, the percent inhibition obtained was plotted against the concentration of inhibitor, and the data was fit to a sigmoidal dose-response curve with a variable slope. The IC50 was calculated from the curve.

HT-29 = experiment: Cell viability assay (resazurin), HT-29; format: cell-based; conditions: Homo sapiens; HT-29 colon cancer cells
Method: as §1, §2

THP1 = experiment: Cell viability assay (resazurin), THP1; format: cell-based; conditions: Homo sapiens, THP-1; THP1 peripheral blood cells
Method: as §1, §2

AsPC-1 = experiment: Cell viability assay (resazurin), AsPC-1; format: cell-based; conditions: Homo sapiens, ASPC1; AsPC-1 pancreatic cancer cells
Method: as §1, §2

HCT116 = experiment: Cell viability assay (resazurin), HCT116; format: cell-based; conditions: Homo sapiens, HCT-116; HCT116 colorectal carcinoma cells
Method: as §1, §2

Panc-10.05 = experiment: Cell viability assay (resazurin), Panc-10.05; format: cell-based; conditions: Homo sapiens, Panc1005; Panc-10.05 cells
Method: as §1, §2

CHK-2 kinase = CHK-2 kinase (Homo sapiens (Human), UniProt O96017); experiment: CHK-2 Kinase Assay (Z-LYTE based TR-FRET); format: biochemical; conditions: for inhibition at 0.1 µM: 0.1 μM compound, read-out: % Inhibition of CHK-2 enzyme activity @ 0.1 μM; for inhibition at 1 µM: 1 μM compound, read-out: % Inhibition of CHK-2 enzyme activity @ 1 μM
CHK-2 kinase, sequence (O96017 whole entry): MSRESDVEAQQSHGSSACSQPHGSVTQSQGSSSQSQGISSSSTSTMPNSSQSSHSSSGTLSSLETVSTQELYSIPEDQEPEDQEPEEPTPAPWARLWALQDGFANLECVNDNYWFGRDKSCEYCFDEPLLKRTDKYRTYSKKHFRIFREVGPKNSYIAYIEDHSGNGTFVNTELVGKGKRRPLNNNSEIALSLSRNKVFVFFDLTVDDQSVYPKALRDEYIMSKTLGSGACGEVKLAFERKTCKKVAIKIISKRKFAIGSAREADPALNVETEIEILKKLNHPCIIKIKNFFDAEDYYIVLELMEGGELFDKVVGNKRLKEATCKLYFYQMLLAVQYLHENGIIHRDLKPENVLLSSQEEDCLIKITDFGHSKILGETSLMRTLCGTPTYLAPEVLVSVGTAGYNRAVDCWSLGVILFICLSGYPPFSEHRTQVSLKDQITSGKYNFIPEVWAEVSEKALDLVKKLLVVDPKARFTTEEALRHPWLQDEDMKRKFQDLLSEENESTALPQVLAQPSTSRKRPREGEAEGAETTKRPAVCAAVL
Method: IC50 values of compounds for inhibition of CHK-2 kinase or percent inhibition at defined concentrations were determined by Z-LYTE™ based TR-FRET assay. Kinase reactions were performed in a 10 μL volume in low-volume 384-well plates. The concentration of substrate (Ser Thr 07) was maintained at 1 μM in the assay, and the kinase reaction buffer consisted of 50 mM HEPES pH 7.5, 0.01% BRIJ-35, 10 mM MgCl2, 1 mM EGTA. Serially diluted compounds (3-fold) in DMSO (0.5% in final reaction) were incubated with cocktail of CHK2 kinase (5 ng/ml; Cat #PV3367, ThermoFisher), substrate Ser Thr 07, (1 μM; Cat #PV3208, ThermoFisher), ATP (84 μM; Cat #PV3227, ThermoFisher) and buffer. Kinase reactions were allowed to proceed for 1 hour at room temperature after which 5 μL of a 1:45000 dilution of Development Reagent A was added. The plate was allowed to incubate at room temperature for 60 minutes before being read on a BMG Pherastar plate reader using the Z-LYTE™ filter block for Z-LYTE™ TR-FRET.
The resulting TR-FRET emission ratio was used to calculate percent inhibition by normalizing with the control using the following formula: — [% Inhibition=1−{(% Phosphorylationsample/% Phosphorylationcontrol (0% inhibition)}·100]
For calculation of IC50, the percent inhibition obtained was plotted against the concentration of inhibitor, and the data was fit to a sigmoidal dose-response curve with a variable slope. The IC50 was calculated from the curve.

With `CNC(=O)c1nnc(Nc2cnc(C#N)cn2)cc1NC[C@@H]1CNCCO1` (stereo in doubt) [1.34, 6-(5-cyanopyrazin-2-ylamino)-N-methyl-4-(morpholin-2-ylmethylamino)pyridazine-3-carboxamide] the IC50 (MDA_MB-231) was 12.4 µM, the IC50 (MV-4-11) was 7 µM and the IC50 (A549) was over 30 µM. For the same molecule, the IC50 (MiaPaCa-2) was 10.8 µM, the inhibition at 0.1 µM (CHK-1 kinase) was 77% and the inhibition at 1 µM (CHK-1 kinase) was 96%. For the same molecule, the inhibition at 5 µM (CHK-1 kinase) was 99%, the IC50 (HT-29) was 16.9 µM and the IC50 (THP1) was 9.79 µM. For the same molecule, the IC50 (AsPC-1) was 13.2 µM and the IC50 (HCT116) was 27.9 µM.
In the case of `CNC(=O)c1nnc(Nc2cnc(C#N)cn2)cc1NC[C@H]1CNCCO1` (stereo in doubt) [1.35, 6-(5-cyanopyrazin-2-ylamino)-N-methyl-4-(morpholin-2-ylmethylamino)pyridazine-3-carboxamide], the IC50 (MDA_MB-231) is reported as 15.5 µM, the IC50 (MV-4-11) is reported as 5.38 µM and the IC50 (A549) is reported as over 30 µM. For the same molecule, the IC50 (MiaPaCa-2) was 10.2 µM, the inhibition at 0.1 µM (CHK-1 kinase) was 86% and the inhibition at 1 µM (CHK-1 kinase) was 100%. For the same molecule, the inhibition at 5 µM (CHK-1 kinase) was 100%, the IC50 (HT-29) was 14.5 µM and the IC50 (THP1) was 6.23 µM. It also gave an IC50 (AsPC-1) of 11.6 µM and an IC50 (HCT116) of 17.2 µM.
`N#Cc1cnc(Nc2cc(NCC3CCNCC3)c(-c3ccccc3)nn2)cn1` [1.1, 5-((6-phenyl-5-((piperidin-4-ylmethyl)amino)pyridazin-3-yl)amino)pyrazine-2-carbonitrile] gave an inhibition at 1 µM (CHK-1 kinase) of 15%, an inhibition at 5 µM (CHK-1 kinase) of 32% and an IC50 (HCT116) of over 30 µM.
Work on `N#Cc1cnc(Nc2cc(NCC3CNCCO3)c(C(N)=O)nn2)cn1` (stereo not drawn) [1.2, 6-((5-cyanopyrazin-2-yl)amino)-4-((morpholin-2-ylmethyl)amino)pyridazine-3-carboxamide] yielded an IC50 (MDA_MB-231) of over 30 µM, an IC50 (A549) of over 30 µM and an IC50 (MiaPaCa-2) of over 30 µM. The IC50 (Panc-10.05) was over 30 µM, the IC50 (CHK-1 kinase) was 0.07 µM and the inhibition at 1 µM (CHK-1 kinase) was 96%. The inhibition at 5 µM (CHK-1 kinase) was 100%, the inhibition at 0.1 µM (CHK-2 kinase) was 8.28% and the inhibition at 1 µM (CHK-2 kinase) was 30%. It also gave an IC50 (HT-29) of over 30 µM, an IC50 (THP1) of over 30 µM and an IC50 (AsPC-1) of over 30 µM. For the same molecule, the IC50 (HCT116) was over 30 µM.
With `N#Cc1cnc(Nc2cc(NCC3CCNCC3)c(C(N)=O)nn2)cn1` [1.3, 6-((5-cyanopyrazin-2-yl)amino)-4-((piperidin-4-ylmethyl)amino)pyridazine-3-carboxamide] the IC50 (MDA_MB-231) was over 30 µM, the IC50 (A549) was over 30 µM and the IC50 (MiaPaCa-2) was over 30 µM. It also gave an IC50 (Panc-10.05) of over 30 µM, an IC50 (CHK-1 kinase) of 0.092 µM and an inhibition at 1 µM (CHK-1 kinase) of 93%. The inhibition at 5 µM (CHK-1 kinase) was 98%, the inhibition at 0.1 µM (CHK-2 kinase) was 12.1% and the inhibition at 1 µM (CHK-2 kinase) was 36.7%. It also gave an IC50 (HT-29) of over 30 µM, an IC50 (THP1) of over 30 µM and an IC50 (AsPC-1) of over 30 µM. For the same molecule, the IC50 (HCT116) was over 30 µM.
`N#Cc1cnc(Nc2cc(NCC3CNCCO3)c(C(F)(F)F)nn2)cn1` (stereo not drawn) [1.7, 2-((6-(5-cyanopyrazin-2-ylamino)-3-(trifluoromethyl)pyridazin-4-ylamino)methyl)morpholin-4-ium 2,2,2-trifluoroacetate] showed an IC50 (MiaPaCa-2) of over 30 µM, an IC50 (HT-29) of over 30 µM and an IC50 (THP1) of over 30 µM.
With `CNC(=O)c1nnc(Nc2cnc(C#N)cn2)cc1NCC1CNCCO1` (stereo not drawn) [1.11, 6-(5-cyanopyrazin-2-ylamino)-N-methyl-4-(morpholin-2-ylmethylamino)pyridazine-3-carboxamide] the IC50 (MDA_MB-231) was 13 µM, the IC50 (MV-4-11) was 5.4 µM and the IC50 (A549) was 11.4 µM. The IC50 (MiaPaCa-2) was 13.4 µM, the inhibition at 0.1 µM (CHK-1 kinase) was 91% and the inhibition at 1 µM (CHK-1 kinase) was 100%. The inhibition at 5 µM (CHK-1 kinase) was 100%, the IC50 (HT-29) was 14.9 µM and the IC50 (THP1) was 4.24 µM. The IC50 (AsPC-1) was 6.41 µM and the IC50 (HCT116) was 17.2 µM.
Work on `N#Cc1cnc(Nc2cc(NCC3CNCCO3)c(C(=O)NC3CC3)nn2)cn1` (stereo not drawn) [1.12, 6-(5-cyanopyrazin-2-ylamino)-N-cyclopropyl-4-(morpholin-2-ylmethylamino)pyridazine-3-carboxamide] yielded an IC50 (MiaPaCa-2) of 23.2 µM, an inhibition at 0.1 µM (CHK-1 kinase) of 63% and an inhibition at 1 µM (CHK-1 kinase) of 96%. For the same molecule, the inhibition at 5 µM (CHK-1 kinase) was 98%, the IC50 (HT-29) was over 30 µM and the IC50 (THP1) was 11.7 µM. The IC50 (AsPC-1) was 12.9 µM.
